The text below walks through data of patent US10292999B2, “Treatment of enteric stress from heat and infection in humans and animals by supplementation with zinc and butyric acid” (Kemin Industries, Inc., priority 2015, dated 2019).

Assay [1] has as its system IPEC-J2 cells. The assay can be described thus: Trans-epithelial resistance (TER) of IPEC-J2 cells under heat stress. Conditions: 300 μM, heat stress 41.5° C.; for trans-epithelial resistance versus un-treated heat stress cells: FIG. 2. Type of assay: cell-based, pig. The procedure:
FIG. 2 is a chart of the effect of 300 μM concentration of different test compounds on the transepithelial resistance (TER) values of IPEC-J2 cells under heat stress conditions.
When animals undergo heat stress, the increased temperature leads to damage of the epithelial layer as well as withdrawal of tight junction proteins to the cytoplasm of the epithelial cells, thus compromising the tight junctions. The compromised tight junctions allow for toxins and other inflammatory substances to enter the systemic circulation. […] As reported in FIG. 2, cells were treated with the test compounds and incubated at 41.5° C. (Con-TN) Control-Thermoneutral conditions—37° C. (CON—HS)—Control-Heat Stress conditions—41.5° C. (Zn Sulf) 300 μM Zinc Sulfate under Heat Stress Conditions—41.5° C. (ZBA) 300 μM ZBA under Heat Stress Conditions—41.5° C. (CaBA) 300 μM Calcium and Butyric Acid Salt under Heat Stress Conditions—41.5° C.

Assay [2] concerns IPEC-J2 cells. The settings on record: 1 mM, normal conditions, vs control, FIG. 1.

Consider `CCCC(=O)[O-].CCCC(=O)[O-].[Zn+2]` [ZBA, zinc salt of butyric acid in a molar ratio of 1:2], for which, in the assay on IPEC-J2 cells [1], the “trans-epithelial resistance versus un-treated heat stress cells” value is recorded as “improves the trans-epithelial resistance to the level of cells grown that are grown at thermoneutral conditions”; the “trans-epithelial resistance (TER), 0 h” value is given as 1.00; the “trans-epithelial resistance (TER), 12 h” value was 2.04; the “trans-epithelial resistance (TER), 24 h” value was 2.24. Besides, in the assay with IPEC-J2 cells [1], the “trans-epithelial resistance (TER), 36 h” value came to 2.60 and the “trans-epithelial resistance (TER), 48 h” value turned out to be 2.76. In addition, the trans-epithelial resistance result in the assay on IPEC-J2 cells [2] is “increased trans-epithelial resistance”.

For `O=S(=O)([O-])[O-].[Zn+2]` [Zinc Sulfate], in the assay with IPEC-J2 cells [1], the “trans-epithelial resistance versus un-treated heat stress cells” value is reported as “do not improve the trans-epithelial resistance”; the “trans-epithelial resistance (TER), 0 h” value was 1.00; the “trans-epithelial resistance (TER), 12 h” value is reported as 1.67; the “trans-epithelial resistance (TER), 24 h” value was 1.89. Moreover, in the assay on IPEC-J2 cells [1], the “trans-epithelial resistance (TER), 36 h” value is reported as 2.19 and the “trans-epithelial resistance (TER), 48 h” value is 2.31.

As to “Calcium and Butyric Acid Salt [Calcium Butyric Acid Salt]”, in the assay on IPEC-J2 cells [1], the “trans-epithelial resistance versus un-treated heat stress cells” value is reported as “do not improve the trans-epithelial resistance”; the “trans-epithelial resistance (TER), 0 h” value is 1.00; the “trans-epithelial resistance (TER), 12 h” value worked out at 1.58; the “trans-epithelial resistance (TER), 24 h” value is reported as 1.74. Also, in the assay on IPEC-J2 cells [1], the “trans-epithelial resistance (TER), 36 h” value is given as 1.96 and the “trans-epithelial resistance (TER), 48 h” value turned out to be 2.10.
